# From patent US5344841A, “Bis-(hydroxylakylamino)-anthraquinone inhibitors of protein kinase C” (Sphinx Pharmaceuticals Corporation, priority 1992, dated 1994)
# Experiments:
# [1] = test system: MCF-7/ADR adriamycin resistant line of MCF-7 cells; experiment: Human tumor growth inhibition, 3H-thymidine incorporation, MCF-7/ADR; assay type: cell-based; conditions: MCF-7/ADR vs MCF-7
# From the text: (§1) MCF-7 a human breast tumor cell line, and MCF-7/ADR an adriamycin resistant line of MCF-7 cells were obtained from the National Cancer Institute, Frederick, Md. NHEK a human keratinocyte cell line was obtained from Clonetic Corp., San Diego, Calif. 8226 a human myeloma cell line, 8226/MT a Mitoxantrone resistant line of 8226 cells, and 8226 ADR an adriamycin resistant line of 8226 cells were obtained from Dr. Bill Dalton, Arizona Cancer Center, Tuscon, Ariz.
# (§2) Human tumor cells are trypsinized (0.05% trypsin, GIBCO), counted with a hemacytometer and seeded at a concentration of 10,000 cells/well in a 96 well microtiter plate. After allowing cells to attach to the surface overnight, the culture medium is aspirated and replaced with 100 μl of fresh medium. Test agents are diluted to determine dose response at 2× final concentration and added in quadruplicate at 100 μl/well to bring the total volume of each well to 200 μl. The microtiter plate is then incubated at 37° C. 5% CO2 overnight (18-24 hrs) before ^3 H-thymidine is added at a concentration of 0.5 μCi/well in 50 μl culture medium. The plate is incubated again for 4 hrs under the same conditions as above. Supernatant is then aspirated and 50 μl trypsin (0.05%, GIBCO) is added to each well. Cells are checked microscopically to determine detachment from surfaces, and plates are then harvested with a cell harvester (PHD, Cambridge Technology, Inc.) Filter papers corresponding to wells are placed in scintillation vials and counted to determine the amount of ^3 H-thymidine incorporated by the cells. Test agent response is compared to a positive control of cell wells with culture media only to determine the IC50. IC50 is the concentration of test compound required to inhibit fifty percent of the incorporation of ^3 H-thymidine into proliferating cells not exposed to test agent. Uptake of ^3 H-thymidine is a standard test for measuring the metabolism of cells. Cells which are actively proliferating take up ^3 H-thymidine, whereas cells that are not proliferating take up ^3 H-thymidine at much slower rates or not at all. Test agents that inhibit the uptake of ^3 H-thymidine thus slow the growth of cells.
# [2] = test system: 8226 human myeloma cell line; experiment: Human tumor growth inhibition, 3H-thymidine incorporation, 8226; assay type: cell-based; conditions: 3H-thymidine uptake, read-out: IC50 8226
# From the text: as §1, §2
# [3] = test system: 8226/ADR adriamycin resistant line of 8226 cells; experiment: Human tumor growth inhibition, 3H-thymidine incorporation, 8226/ADR; assay type: cell-based; conditions: 8226/ADR vs 8226
# From the text: as §1, §2
# NHEK human keratinocytes = experiment: Human keratinocyte inhibition, 3H-thymidine incorporation; assay type: cell-based
# Method: Human tumor cells are trypsinized (0.05% trypsin, GIBCO), counted with a hemacytometer and seeded at a concentration of 10,000 cells/well in a 96 well microtiter plate. After allowing cells to attach to the surface overnight, the culture medium is aspirated and replaced with 100 μl of fresh medium. Test agents are diluted to determine dose response at 2× final concentration and added in quadruplicate at 100 μl/well to bring the total volume of each well to 200 μl. The microtiter plate is then incubated at 37° C. 5% CO2 overnight (18-24 hrs) before ^3 H-thymidine is added at a concentration of 0.5 μCi/well in 50 μl culture medium. The plate is incubated again for 4 hrs under the same conditions as above. […] Cells are checked microscopically to determine detachment from surfaces, and plates are then harvested with a cell harvester (PHD, Cambridge Technology, Inc.) Filter papers corresponding to wells are placed in scintillation vials and counted to determine the amount of ^3 H-thymidine incorporated by the cells. […]
# Proliferating keratinocytes (NHEK cells purchased from Clonetics, Inc. San Diego, Calif.) in second passage were grown in Keratinocyte Growth Medium (KGM) (Clonetics, Inc.) Cells were trypsinized with 0.025% trypsin (Clonetics), counted with a hemacytometer (Scientific Products), and seeded at a concentration of 2,500 cells/well in a 96 well microtiter plate. […]
# human neutrophils = experiment: Neutrophil superoxide anion (O2-) release assay, PMA-stimulated; assay type: cell-based; conditions: Homo sapiens, Neutrophil, PMA-stimulated O2- production
# Method: Neutrophils were isolated form whole blood collected from human volunteers. All reagent materials were obtained from Sigma Chemical Company with the exception of isotonic saline (Travenol Lab., Inc. Deerfield, Ill.) and lymphocyte separation medium (Organon Teknika, Durham, N.C.). Whole blood was drawn and mixed with sodium heparin (final conc. 10 units/ml) to prevent clotting. An equal volume of dextran (3.0%) in isotonic saline was added, mixed, and allowed to settle for 30 min to bind red blood cells (RBC). The supernatant was removed, underlayered with lymphocyte separation medium and centrifuged for 40 min at 400 xg in a centrifuge (Beckman GPR, Norcross, Ga.). […] The washed pellet was resuspended in 10 ml HBSS and placed on ice before counting on a hemacytometer. The neutrophil cell concentration is adjusted to 2×10^6 cells/ml with HBSS before adding 0.8 ml cells to 12×75 mm polypropylene test tubes (Fisher Scientific). Test agents are diluted to determine dose response and added at 10×final concentration at a volume of 0.1 ml/tube in duplicate. […] Tubes are then centrifuged at 900 xg for 10 min, 0.5 ml supernatant is removed and added to 0.5 ml H2 O in a microcuvette. Optical density (OD) of cytochrome c is read in a spectrophotometer (Shimadzu) at 550 nm. The ΔOD of cytochrome c is obtained between PMA-stimulated and non-stimulated tubes, and the dose responses of the test agents are compared to the positive controls (which contain HBSS in place of test agents). PMA stimulates O2^- production which reduces cytochrome c. Reducing cytochrome c increases its absorbance, and the change in OD of cytochrome c is proportional to the amount of O2^- produced by PMA stimulation. Inhibition of the O2^- burst by test compounds of the invention is seen as a reduction in the change in optical density. Inhibition is expressed as IC50 μM and is the amount of test compound that will inhibit fifty percent of the PMA-stimulated respiratory outburst, i.e. O2^- production.
# P388 murine leukemia = experiment: P388 leukemia tumor assay in mice, survival time; assay type: in vivo, mouse
# From the text: P388 Leukemia Tumors. Mice were young adult, pathogen-free, BALA/c×DBA/2 F1 (i.e., CD2F1) females purchased from Charles River Laboratories. The tumor line was the P388 murine leukemia, ascites form, obtained from the National Cancer Institute (NCI) Tumor Repository (Frederick, Md.). The tumor was maintained in the serial passage in mice by periodic intraperitoneal (ip) implantation. For this experiment, 10^6 hemacytometer-counted P388 murine leukemia cells were implanted ip into mice on Day 0. The mice were randomized into one untreated control group of 20 and 15 test groups of six mice each. All drug treatment was delivered ip on the basis of the average body weight of each group. […] Body weights were recorded on Days 1, 5, 9, 11, and 18. Deaths were recorded daily. Dying mice were necropsied, and the presence or absence of ascites or splenomegaly was recorded. Drug effectiveness was assessed on the basis of the survival time. Results were expressed as a percentage of the control survival time (Survival Time=T/C×100%; T=test animals; C=control animals). The criterion for effectiveness was determined by: T/C×100≥125 percent.
# [4] = test system: MCF-7 human mammary carcinoma xenografts; experiment: MCF-7 human mammary carcinoma xenografts in athymic nude mice; assay type: in vivo, mouse (human tumor xenograft); conditions: FIG. 4
compound,measurement,setting,value
"CCN(CC)CC(O)CNc1ccc(NCC2CO2)c2c1C(=O)c1ccccc1C2=O (stereo not shown) [Compound 1b-1, 1-(3-diethylamino-2-hydroxypropylamino)-4-(2,3-epoxypropylamino)-9, 10-anthracenedione]",Resistance Ratio (IC50 MCF-7/ADR to IC50 MCF-7),[1],2.4
same,IC50,[2],60 nM
same,Resistance Ratio (8226/ADR),[3],0.26
same,IC50,NHEK human keratinocytes,40 nM
same,IC50,human neutrophils,> 25 µM
same,% T/C p388 Leukemia,"P388 murine leukemia; 16 mg/kg, Q4D × 3, ip, survival time",140%
same,survival time of mice (in words),P388 murine leukemia; all dosages and schedules,effectively increased the survival time
same,median tumor weight vs control mice (in words),[4]; at stabilization,significantly lower than the weight of the control mice
same,day at which tumor growth was stabilized,"[4]; iv, once every four days, five injections",~30 days
same,day until which median tumor weight remained stable,[4]; then tumor regrowth,~38 days
